Results reported in patent US6875757B2, “LPA receptor agonists and antagonists and methods of use” (University of Tennessee Research Foundation, priority 2000, dated 2005).
Like-named read-outs stand apart in the source and are kept apart here.

How the values were obtained:
Assay type in all cases: cell-based
[1] = system: PC-3 prostate cancer cell line; assay: Cytotoxicity / growth inhibition (SRB), PC-3; conditions: 96 hours drug exposure, read-out: IC50 ± SEM, PC-3
Method: (§1) Cells were removed from stock flasks using trypsin, centrifuged, resuspended in fresh media, and plated at a density of approximately 2,000 cells/well in 96-well culture plates. Final drug concentrations ranged from 0.05 to either 10 or 50 μM. Control experiments with no drug added (negative control) and 5-fluorouracil added (positive control) were performed in parallel. Media was removed and replaced at 48 hours to minimize the effects of drug degradation during the course of the experiment. After 96 hours drug exposure, cells were fixed by the addition of cold 50% trichloroacetic acid (TCA) and incubation at 4° C. for 1 hour. Fixed cells were stained with sulforhodamine B (SRB), and cell number was determined by comparison of absorbance at 540 nm, as compared to a standard curve of cell number versus absorbance. Experiments were performed in duplicate.

[2] = system: LNCaP prostate cancer cell line; assay: Cytotoxicity / growth inhibition (SRB), LNCaP; conditions: 96 hours drug exposure, read-out: IC50 ± SEM, LNCaP
Method: as §1

[3] = system: DU-145 prostate cancer cell line; assay: Cytotoxicity / growth inhibition (SRB), DU145; conditions: read-out: IC50 ± SEM, DU145
Method: as §1

HEY ovarian cancer cells [4] = assay: LPA-induced HEY ovarian cancer cell migration (cell motility); conditions: compound 1 μM against 0.1 μM LPA
Method: It is known that two LPA receptors, EDG-2 and EDG-7, are expressed in HEY ovarian cancer cells, so compounds 56, 56a, and 66 were evaluated for their ablity to inhibit LPA-induced cell motility (compound conc: 1 μM against 0.1 μM LPA conc:).
HEY ovarian cells were maintained in RPMI 1640 medium with 2 mM L-glutamine (GIBCO BRL) supplemented with 10% fetal bovine serum (FBS, Hyclone). All cells were synchronized to the Go/G1 stage by growing them to confluency for 2 days. The cells were replated and harvested for experiments when cells were about 50-60% confluent on the flask. After removal of the cells from the flask, they were exposed for 5 min to 0.53 mM EDTA in PBS at 37° C. EDTA was neutralized with equal volume of RPMI 1640 plus 2 mM L-glutamine and 10% FBS. Cells were centrifuged at 800 rpm for 10 min at room temperature. Harvested cells were washed twice with RPMI 1640 with 2 mM L-glutamine medium and resuspended in the concentration of 1×10^6 cells/ml, and then rested for 1 hr at 37° C.
A modified quantitative cell migration assay (Cat. # ECM500 from Chemicon, Temecula, Calif.) was used to test cell motility. The Chemicon chamber membrane was coated with fibronectin-containing pores of 8 microns in diameter. A 400 μl RPMI/2 mM L-glutamine containing either no inhibitors or inhibitors (1 μM) were pippetted into the lower chamber. About 5×10^4 cells in RPMI 1640/2 mM L-glutamine were added to the top chamber. The 24-well plates with inserts were incubated for 4 hours in a 5% CO2 incubator at 37° C. At the end of incubation, the chambers were removed to a fresh 24-well plate, and the cells on the inside chamber were removed by a swab several times and placed in the prepared Cell Stain Solution for 30 minutes at room temperature. At the end of incubation, Cell Stain Solution was removed from the wells. The chambers were washed 3 times with 1 mL PBS per well. After the final PBS wash, the chambers were examined to confirm proper cell morphology, and adherent cells were counted using an inverted microscope.

PSP24 PLGFR = PSP24 PLGFR (Xenopus laevis, UniProt P79945); assay: Xenopus oocyte assay: LPA-induced oscillatory chloride currents (two-electrode voltage clamp); conditions: for inhibition of LPA-induced chloride currents: Xenopus oocytes, extracellular application
Sequence of PSP24 PLGFR (P79945 whole entry): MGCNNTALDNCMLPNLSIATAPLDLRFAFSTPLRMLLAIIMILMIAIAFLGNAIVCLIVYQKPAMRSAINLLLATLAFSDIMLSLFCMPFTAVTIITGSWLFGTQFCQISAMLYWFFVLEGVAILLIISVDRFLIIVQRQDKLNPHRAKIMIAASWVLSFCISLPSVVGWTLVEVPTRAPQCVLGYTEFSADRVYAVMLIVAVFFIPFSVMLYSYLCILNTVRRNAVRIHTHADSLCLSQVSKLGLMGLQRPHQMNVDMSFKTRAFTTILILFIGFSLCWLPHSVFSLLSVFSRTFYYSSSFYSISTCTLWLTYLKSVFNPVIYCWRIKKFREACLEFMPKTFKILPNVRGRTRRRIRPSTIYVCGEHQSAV
Method: Xenopus oocytes which endogenously express PSP24 PLGFR were used to screen the newly designed and synthesized compounds for their LPA inhibitory activity.
(§2) Oocytes were obtained from xylazine-anesthetized adult Xenopus laevis frogs (Carolina Scientific, Burlington, N.C.) under aseptic conditions and prepared for experiment. […] Oocytes were kept in Barth's solution in an incubator between 17-20° C. and were used for 2-7 days after isolation.
Electrophysiological recordings were carried out using a standard two-electrode voltage-clamp amplifier holding the membrane potential at −60 mV (GeneClamp 500, Axon Instruments, Calif.). […] Membrane currents were recorded with a NIC-310 digital oscilloscope (Nicolet, Madison, Wis.). Applications were made at intervals of 15 mins (minimum) to allow for the appropriate washout and recovery from desensitization.
as §2
Electrophysiological recordings were carried out using a standard two-electrode voltage-clamp amplifier holding the membrane potential at −60 mV (GeneClamp 500, Axon Instruments, CA). […] Membrane currents were recorded with a NIC-310 digital oscilloscope (Nicolet, Madison, Wis.). Applications were made at intervals of 15 mins (minimum) to allow for the appropriate washout and recovery from desensitization.

human Edg-4 = target: T1, human Edg-4 (Homo sapiens, UniProt Q9HBW0); assay: Ca2+ responses (Fura-2) in RH7777 cells expressing Edg-4 (stable or transient); conditions: stable Edg-4; 500 nM LPA 18:1 mixed with 5 μM lipid
T1 construct: expressed in transfected cells
T1 sequence (Q9HBW0 whole entry): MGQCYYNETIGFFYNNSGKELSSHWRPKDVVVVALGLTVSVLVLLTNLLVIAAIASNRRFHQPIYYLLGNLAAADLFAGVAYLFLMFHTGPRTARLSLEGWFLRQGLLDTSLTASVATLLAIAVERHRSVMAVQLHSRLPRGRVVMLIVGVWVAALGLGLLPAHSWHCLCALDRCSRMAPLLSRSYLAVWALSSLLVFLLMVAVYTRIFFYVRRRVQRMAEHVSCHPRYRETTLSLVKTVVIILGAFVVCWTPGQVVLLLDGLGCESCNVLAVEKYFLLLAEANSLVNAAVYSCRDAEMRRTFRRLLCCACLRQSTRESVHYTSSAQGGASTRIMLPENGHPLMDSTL
Source text: RH7777 cells, stably expressing human Edg-4, were kindly provided by Dr. Kevin Lynch (University of Virginia, Charlottesville, Va.). Flag-tagged cDNA's encoding human Edg-4 and -7 inserted into the pCDNA3 expression plasmid (Invitrogen, Carlsbad, Calif.), were a generous gift from Dr. Junken Aoki (University of Tokyo, Tokyo, Japan). RH7777 and NIH3T3 cells were obtained from the American Type Culture Collection (Manassas, Va.). HEY cells were provided by Dr. Lisa Jennings (University of Tennessee, Memphis). All cell lines were maintained in Dulbecco's Modified Eagle's Medium (DMEM) containing 10% FBS and 2 mM glutamine. Oocytes were obtained from adult Xenopus laevis frogs as previously described (Tigyi et al., 1999).
(§3) RH7777 cells were transfected with the cDNA constructs encoding human Edg-2, Edg-4, or Edg-7 and then were subcloned into the pCDNA3 expression vector using the Cytofectene transfection reagent according to the manufacturers' protocol. Transfected cells were selected in DMEM containing 10% FBS and 1 mg/ml geneticin. Resistant cells were collected and subcloned by limiting dilution. The resulting clones were then screened using functional assays and RT-PCR analysis. Data are representative of three individual clones.
RH7777 cells were plated on polylysine-coated glass coverslips (Bellco, Vineland, N.J.) one day prior to transfection. The following day, cells were transfected overnight (16-18 hr) with 1 μg of plasmid DNA mixed with 6 μl of Cytofectene. The cells were then rinsed twice with DMEM and cultured in DMEM containing 10% FBS. The next day, the cells were rinsed with DMEM and serum was withdrawn for a minimum of 2 hr prior to monitoring intracellular Ca^2+.

HEY ovarian cancer cells [5] = assay: Ca2+ responses in HEY ovarian cancer cells; conditions: 100 nM LPA 18:1 mixed with 1 μM lipid
Source text: Likewise, PA 8:0 inhibited the Ca^2+ response to 6% of control, whereas PA 18:1 had no effect. HEY express mRNA transcripts for Edg-1, -2, -5, -7 receptors (FIG. 34C).

human Edg-7 = target: T2, human Edg-7 (Homo sapiens, UniProt Q9UBY5); assay: Ca2+ responses (Fura-2) in RH7777 cells expressing Edg-7; conditions: 250 nM LPA 18:1 mixed with 500 nM lipid
T2 construct: Flag; expressed in transfected cells
T2 sequence (Q9UBY5 1-353): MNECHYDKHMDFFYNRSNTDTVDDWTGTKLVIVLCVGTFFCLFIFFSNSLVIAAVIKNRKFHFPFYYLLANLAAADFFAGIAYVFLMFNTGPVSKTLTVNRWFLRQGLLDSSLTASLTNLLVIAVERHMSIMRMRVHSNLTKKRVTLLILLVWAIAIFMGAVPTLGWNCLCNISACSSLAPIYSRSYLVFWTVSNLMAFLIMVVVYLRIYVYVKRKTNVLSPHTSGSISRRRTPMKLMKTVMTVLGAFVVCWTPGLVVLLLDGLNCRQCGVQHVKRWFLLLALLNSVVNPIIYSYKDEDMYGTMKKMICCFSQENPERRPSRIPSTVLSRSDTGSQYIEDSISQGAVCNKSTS
Method: as §3

human Edg-2 = target: T3, human Edg-2 (Homo sapiens, UniProt Q92633); assay: Ca2+ responses (Fura-2) in RH7777 cells expressing Edg-2; conditions: 250 nM LPA 18:1 mixed with 10 μM lipid
T3 construct: expressed in transfected cells
T3 sequence (Q92633 whole entry): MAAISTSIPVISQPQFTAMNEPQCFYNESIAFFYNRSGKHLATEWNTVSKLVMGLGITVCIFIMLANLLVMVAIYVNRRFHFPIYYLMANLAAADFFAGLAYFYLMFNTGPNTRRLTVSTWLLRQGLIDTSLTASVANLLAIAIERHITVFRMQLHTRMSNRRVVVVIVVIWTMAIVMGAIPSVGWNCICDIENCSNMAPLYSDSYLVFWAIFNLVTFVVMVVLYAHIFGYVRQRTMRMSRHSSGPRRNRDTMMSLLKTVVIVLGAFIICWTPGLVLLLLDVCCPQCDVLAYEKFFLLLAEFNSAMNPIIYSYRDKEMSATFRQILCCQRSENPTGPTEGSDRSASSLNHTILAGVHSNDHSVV
Method: as §3

NIH3T3 cells = assay: LPA-elicited proliferation of NIH3T3 cells (cell counting); conditions: 5 μM LPA 18:1 mixed with 10 μM lipid, 24 hr
Method: Proliferation of NIH3T3 cells was assessed by direct cell counting as previously described (Tigyi et al., 1999). NIH3T3 cells were plated in 24-well plates at a density of 10,000 cells/well, in DMEM containing 10% FBS. The following day, the cells were rinsed and serum starved in DMEM for 6 hr. Lipids were then added for 24 hr. Cell numbers were determined by counting in a Coulter counter (Coulter Electronics, Hialeah, Fla.).

Row | Molecule | IC50 [1] [µM] | IC50 [2] [µM] | IC50 ([3]; 96 hours drug exposure) [µM] | effect on LPA-induced cell motility (HEY ovarian cancer cells [4]) | Ca2+ responses, % of control (human Edg-4) | effect on LPA-elicited Ca2+ response (HEY ovarian cancer cells [5]) | effect on LPA-elicited Ca2+ responses (human Edg-7) | effect on LPA-induced proliferation (NIH3T3 cells) | inhibition of LPA-induced chloride currents (PSP24 PLGFR) | other results
1 | 2-Amino-3-(nonylamino)-3-oxopropyl dihydrogen phosphate [Compound 55] | 31.6 ± 9 | 4.9 ± 2.6 | 24.9 ± 4.1 | potentiated the LPA-induced cell motility |  |  |  |  |  | inhibition of LPA-induced response (PSP24 PLGFR; compound at 1 μM against 2 nM LPA): 38%
2 | Phosphatidic acid [PA 18:1] |  |  |  |  | 137 % of control | had no effect | no longer inhibitors of Edg-7 |  |  | decrease of the Ca2+ response (human Edg-2): 18%
3 | Phosphatidic acid [PA 8:0] |  |  |  |  | 162 % of control |  |  | had no significant inhibition | effective at inhibiting the LPA-elicited responses | LPA-elicited Ca2+ response, % of control (HEY ovarian cancer cells [5]): 6 % of control; inhibition of the Ca2+ responses (human Edg-7): 56%; Ca2+ response, % of control (human Edg-2): 19 % of control
4 | CCCCCCCCCCCCCCNC(=O)C(COP(=O)(O)O)NC(C)=O (stereo not drawn) [Compound 56a, 2-(Acetylamino)-3-oxo-3-(tetradecylamino) propyl dihydrogen phosphate] |  | 30.3 ± 7.9 | 0.7 ± 0.1 | potentiated the LPA-induced cell motility |  |  |  |  |  | effect on LPA response when applied in combination with LPA (PSP24 PLGFR; applied in combination with LPA): enhanced the LPA response; response elicited by compound alone at 2 μM (PSP24 PLGFR; compound alone, 2 μM): did not elicit a response; response elicited by compound alone at 10 μM (PSP24 PLGFR; compound alone, 10 μM): able to elicit a response on its own
5 | CCCCCCCC(=O)OC[C@H](COP(=O)(O)OP(=O)(O)O)OC(=O)CCCCCCC [DGPP 18:1, diacylglycerol pyrophosphate] |  |  |  |  |  | had no effect | no longer inhibitors of Edg-7 | Neither DGPP 18:1, nor long- and short-chain PA and DAG had an effect |  | inhibitory effect on LPA-elicited Ca2+ response (human Edg-2): no longer had an inhibitory effect
6 | CCCCCCCCCCCCCCCCCCOCC(COP(=O)(O)O)OP(=O)(O)O (stereo not drawn) [Compound 66, 1,2-(3-Octadecyloxypropane)-bis(dihydrogen phosphate)] | > 10 |  |  |  |  |  |  |  | inhibitors of LPA-induced chloride current | IC50 ([2]; Homo sapiens, LNCaP): 3.1 ± 3.2 µM; IC50 ([3]; Homo sapiens, DU-145, 96 hours drug exposure): > 10 µM; inhibition at 1 µM (HEY ovarian cancer cells [4]): ~70%; effect on LPA response after intracellular microinjection (PSP24 PLGFR; 5 μM microinjected inside the cell, then extracellular LPA (10 nM)): failed to inhibit the LPA response; reversibility of inhibition of LPA-induced chloride currents (PSP24 PLGFR; after washing the oocyte): reversible; effect on the LPA response at 5 μM (PSP24 PLGFR; compound at 5 μM): completely abolished the effect of LPA
